Assay results reported in a melting point compilation (Tetko et al.; mined from patent text by program, amines drawn as free bases though some values may be those of a salt).

SMILES | melting point [°C]
CC(C)(C)NC(=O)[C@H](Cc1ccc([N+](=O)[O-])cc1)NC(=O)OC(C)(C)C | 158 to 159
N#CCn1nc2n(c1=O)-c1ccc(Cl)nc1C(c1ccccc1Cl)=NC2 | 198 to 200
Cc1cc([N+](=O)[O-])ccc1S(=O)(=O)n1c(Br)nc(Br)c1C | 187 to 189
CC(C)(C)c1nc(C=Cc2cccnc2)nc(C(C)(C)C)c1O | 150 to 151
CCCCCCC(=O)c1c(O)oc(=O)c(C(=O)CCCCCC)c1O | 88 to 90
Nc1c(SC(F)(F)F)c(C(=O)O)nn1-c1c(Cl)cc(C(F)(F)F)cc1Cl | 199
O=[N+]([O-])c1cccc(CO)c1Cl | 69 to 70
CC(=O)C1CCC2C3CCC4CC(O)C(O[N+](=O)[O-])CC4(C)C3C(=O)CC12C (centres undefined) | 170 to 176
Fc1cc(Cl)ccc1-n1nn[nH]c1=S | 128
CCOC(=O)CC1NCCN(CCc2c[nH]c3ccc(Cl)cc23)C1=O (centres undefined) | 136
COc1cccc([C@]23CCN(C)C(=O)[C@@H]2CCC(=O)C3)c1 (relative stereo) | 156 to 158
CC(C)(C)c1cc(C(=O)C(=O)O)cc(C(C)(C)C)c1O | 125 to 126
N#CCc1ccc(CC(=O)O)c(S(N)(=O)=O)c1 | 125 to 129
CCN1CCC(c2cccc(C(F)(F)F)c2)(C(C)(C)O)CC1 | 110
O=[N+]([O-])c1ccc2oc(CO)cc2c1 | 115 to 116
Cc1c(NCCNC(=O)OC(C)(C)C)c([N+](=O)[O-])c2nnnn2c1C | 145 to 147

Next, values leading:

melting point [°C] | SMILES
152 to 153 | COc1cc(COc2nn(-c3ccccc3)cc2/C=C/P(=O)(OC(C)C)OC(C)C)ccc1OCc1nc(-c2ccco2)oc1C
158 to 160 | CCCCS(=O)(=O)Nc1ccc(OCc2ccc3ccccc3n2)c(C#N)c1
76 to 79 | Cc1ccc(-c2cccc(-c3nc(C(C)C)[nH]c3-c3cccc(C)n3)c2)cc1
65 to 66 | CCOC(=O)C(C(=O)OCC)c1ccc(OCc2ccccc2)cc1
248 to 251 | COc1ccc2onc(Nc3ccncc3)c2c1
89.5 to 90 | COC(=O)c1ccc(-c2cccc(OC)c2)nc1
49 to 51 | CCc1c(F)nc(-c2ccccc2)nc1F
245 | O=C(O)c1cc(Cl)cc2c1[nH]c1ccccc12
161 to 163 | Cc1ccc(-c2ccccc2C(=O)Nc2ccc(C(=O)N3CCC(=O)N(CC(=O)N4CCN(C)CC4)c4ccccc43)cc2)cc1
83 | CCc1c(C)c(=O)oc2cc(-c3ccc(C(C)C)cc3)cc(OC)c12
112 to 114 | O=C1c2ccccc2C(=O)N1CCCCOc1ccc([N+](=O)[O-])cc1
> 217 | CC(C)(C)NC(=O)N1CCn2c(C#N)c(-c3cccc(F)c3)c(C(N)=O)c2C1
184 | CCCn1ccn(-c2ccc(N3CCN(c4ccc(OC)cc4)CC3)cc2)c1=O
120 to 122 | CC1=C(C(=O)OCCN(C)Cc2ccccc2)C(c2ccccc2C#N)c2c(ccnc2OC(C)C)N1 (centres undefined)
64 to 65 | CCc1nc(CCc2cccc(N)c2)sc1C
114 | CN(C)C=Nc1ncc(-c2ccc(C(F)(F)F)cc2)cc1C(F)(F)F
204 to 206 | CC(C)Oc1ccc(-c2nn(C(C)c3oc4ccccc4c(=O)c3-c3cccc(F)c3)c3ncnc(N)c23)cc1F (centres undefined)
178 to 180 | CCOC(=O)C1=NN=C(c2ccc(OC)c(OC)c2)c2cc(OC)c(OC)cc2C1CC (centres undefined)
74 | CC(=O)n1c(=O)sc2c(Cl)cccc21
69 to 70 | Nc1cc(F)ccc1C(=O)Oc1ccccc1
86 to 87.5 | COc1c(Sc2ccccc2)c2cccnc2n1-c1ccccc1
97 to 100 | CCOC(=O)C1=C(COCc2nnnn2CC(N)=O)NC(C)=C(C(=O)OC)C1c1ccccc1Cl (centres undefined)
112 to 113 | NCCCc1cn(C(c2ccccc2)(c2ccccc2)c2ccccc2)cn1
